Where two headings read alike, the source gives them in different places.
What was measured:
[1] = target: T1, wild type P450cam (Pseudomonas putida, UniProt P00183); experiment: biochemical; assay type: binding; conditions: read-out: Vs DTT (percentage displacement of DTT bound to P-450)
Target sequence in this assay (P00183 whole entry): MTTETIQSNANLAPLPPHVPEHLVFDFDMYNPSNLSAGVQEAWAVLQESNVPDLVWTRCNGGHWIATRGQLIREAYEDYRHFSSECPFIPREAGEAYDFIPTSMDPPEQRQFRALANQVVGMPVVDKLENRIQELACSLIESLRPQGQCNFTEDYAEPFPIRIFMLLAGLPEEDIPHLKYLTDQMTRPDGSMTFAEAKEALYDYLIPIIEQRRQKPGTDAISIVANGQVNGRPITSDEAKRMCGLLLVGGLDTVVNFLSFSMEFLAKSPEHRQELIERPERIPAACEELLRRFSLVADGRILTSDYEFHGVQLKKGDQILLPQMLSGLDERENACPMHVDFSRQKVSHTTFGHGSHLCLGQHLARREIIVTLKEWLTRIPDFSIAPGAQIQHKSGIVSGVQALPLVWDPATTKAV

[2] = target: P-450cam mutant Y96A (Pseudomonas putida, UniProt P00183, Y97A); experiment: biochemical; assay type: binding; conditions: for percent displacement of bound DTT at 200 µM / inhibition at 200 µM: read-out: Vs DTT (percentage displacement of DTT bound to P-450)
[3] = target: T1, wild type P450cam; assay type: binding; conditions: Wild type; 200 μM test compound, phosphate buffer pH 7.4
Target sequence in this assay (P00183 whole entry): as above

[4] = target: T2, P450cam mutant Y96L, C334A (Pseudomonas putida, UniProt P00183, C335A/Y97L); experiment: Product distribution following oxidation of substrates, Y96L (also C334A); assay type: biochemical, P. putida
T2 construct: reconstituted with putidaredoxin and putidaredoxin reductase
Protocol: (§1) […] The enzymatic reaction was initiated by firstly adding NADH to a total concentration of 2 mM. Further four aliquots of NADH (to increase the NADH concentration by 1 mM each time) were added in intervals of 5 min and the reaction quenched after 30 min by adding 0.5 ml chloroform. The chloroform layer was analysed by gas chromatography.
(§2) Reaction products for some substrate compounds have been purified by high performance liquid chromatography and identified by mass spectroscopy, nuclear magnetic resonance, and/or co-elution. […] Table 4(a) to 4(h) details the product distributions for mutant and substrate combinations where this has been elucidated to date.
(§3) Product structure and distributions following oxidation of substrates
(§4) active site mutants. All mutants shown below also contain the C334A

[5] = target: T3, P450cam mutant F87A-F96G-F193A (C334A) (Pseudomonas putida, UniProt P00183, C335A/F194A/F88A/Y97G); assay type: biochemical, P. putida
T3 construct: reconstituted with putidaredoxin and putidaredoxin reductase
Protocol: as §1, §2, §3, §4

[6] = target: T4, P450cam mutant Y96F, C334A (Pseudomonas putida, UniProt P00183, C335A/Y97F); assay type: biochemical, P. putida
T4 construct: reconstituted with putidaredoxin and putidaredoxin reductase
Protocol: as §1, §2, §3, §4

[7] = target: T5, P450cam mutant Y96A, C334A (Pseudomonas putida, UniProt P00183, C335A/Y97A); assay type: biochemical, P. putida
T5 construct: reconstituted with putidaredoxin and putidaredoxin reductase
Protocol: as §1, §2, §3, §4

[8] = target: T6, P450cam mutant Y96V, C334A (Pseudomonas putida, UniProt P00183, C335A/Y97V); experiment: Product distribution following oxidation of substrates, Y96V (also C334A); assay type: biochemical, P. putida
T6 construct: reconstituted with putidaredoxin and putidaredoxin reductase
Protocol: as §1, §2, §3, §4

[9] = target: T1, wild type P450cam; experiment: Product distribution following oxidation of substrates, WT; assay type: biochemical, P. putida; set-up: reconstituted with putidaredoxin and putidaredoxin reductase
Protocol: as §1, §2, §3
Target sequence in this assay (P00259 whole entry): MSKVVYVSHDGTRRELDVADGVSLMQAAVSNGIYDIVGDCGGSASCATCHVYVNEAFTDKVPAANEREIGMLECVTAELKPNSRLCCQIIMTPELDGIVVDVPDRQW
Target sequence in this assay (P00183 whole entry): as the sequence (P00183 whole entry) above
Target sequence in this assay (P16640 whole entry, further chain): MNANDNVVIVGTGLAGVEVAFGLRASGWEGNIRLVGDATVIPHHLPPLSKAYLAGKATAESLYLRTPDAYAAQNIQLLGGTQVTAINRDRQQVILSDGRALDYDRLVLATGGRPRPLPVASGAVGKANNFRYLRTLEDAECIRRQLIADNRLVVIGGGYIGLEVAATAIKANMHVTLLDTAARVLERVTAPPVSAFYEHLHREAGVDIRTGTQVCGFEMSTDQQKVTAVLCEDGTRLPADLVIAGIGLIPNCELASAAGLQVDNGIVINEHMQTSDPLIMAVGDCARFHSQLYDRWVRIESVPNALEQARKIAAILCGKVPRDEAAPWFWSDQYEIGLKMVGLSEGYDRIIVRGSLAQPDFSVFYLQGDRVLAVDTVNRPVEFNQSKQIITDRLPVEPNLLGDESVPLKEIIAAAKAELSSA

[10] = target: T5, P450cam mutant Y96A, C334A; assay type: biochemical, P. putida; conditions: also contains C334A
Protocol: A solution containing 10 μM putidaredoxin, 2 μM putidaredoxin reductase, 1 μM cytochrome P-450cam mono-oyxgenase (wild-type or mutant) and 1 mM diphenylmethane in 100 mM KC1, 20 mM KH2 PO4 pH7.4 was preincubated at 25° C. in a shaker for 5 min. The enzymatic reaction was initiated by firstly adding NADH to a total concentration of 2 mM. Further four aliquots of NADH (to increase the NADH concentration by 1 mM each time) were added in intervals of 5 min and the reaction quenched after 30 min by adding 0.5 ml chloroform. The chloroform layer was analysed by gas chromatography.
as §2
All mutants listed below also contain the C334A mutation.
Turnover rate measured as NADH consumption rate
(nmole NADH/nmole P450cam/s).

[11] = Wild type, 200 μM DTT, 200 μM test compound, phosphate buffer
[12] = Mutant Y96A, 200 μM DTT, 200 μM test compound, phosphate buffer

T5 sequence (P00259 whole entry): as the sequence (P00259 whole entry) above
T5 sequence (P00183 2-415 Y97A/C335A): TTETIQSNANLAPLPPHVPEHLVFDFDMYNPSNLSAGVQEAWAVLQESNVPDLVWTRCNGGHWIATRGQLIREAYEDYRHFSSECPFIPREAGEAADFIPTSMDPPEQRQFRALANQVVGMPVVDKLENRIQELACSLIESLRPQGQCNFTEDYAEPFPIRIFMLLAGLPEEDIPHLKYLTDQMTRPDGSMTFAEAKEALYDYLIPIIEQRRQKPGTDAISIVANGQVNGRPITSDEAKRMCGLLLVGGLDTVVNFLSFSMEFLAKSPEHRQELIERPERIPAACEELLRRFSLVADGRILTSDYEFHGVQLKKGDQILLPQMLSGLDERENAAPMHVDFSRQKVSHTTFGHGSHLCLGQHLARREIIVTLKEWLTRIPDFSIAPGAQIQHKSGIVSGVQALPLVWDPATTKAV
T5 sequence (P16640 whole entry, further chain): as the sequence (P16640 whole entry, further chain) above
T2 sequence (P00259 whole entry): as the sequence (P00259 whole entry) above
T2 sequence (P16640 whole entry, further chain): as the sequence (P16640 whole entry, further chain) above
T2 sequence (P00183 2-415 Y97L/C335A): as the sequence (P00183 2-415 Y97A/C335A) above, with A96L counted along it
T3 sequence (P00259 whole entry): as the sequence (P00259 whole entry) above
T3 sequence (P16640 whole entry, further chain): as the sequence (P16640 whole entry, further chain) above
T3 sequence (P00183 2-415 F88A/Y97G/F194A/C335A): as the sequence (P00183 2-415 Y97A/C335A) above, with F87A, A96G, F193A counted along it
Sequence of P-450cam mutant Y96A (P00183 2-415 Y97A): as the sequence (P00183 2-415 Y97A/C335A) above, with A334C counted along it
T6 sequence (P16640 whole entry): as the sequence (P16640 whole entry, further chain) above
T6 sequence (P00259 whole entry, further chain): as the sequence (P00259 whole entry) above
T6 sequence (P00183 2-415 Y97V/C335A): as the sequence (P00183 2-415 Y97A/C335A) above, with A96V counted along it
T4 sequence (P16640 whole entry): as the sequence (P16640 whole entry, further chain) above
T4 sequence (P00183 2-415 Y97F/C335A): as the sequence (P00183 2-415 Y97A/C335A) above, with A96F counted along it
T4 sequence (P00259 whole entry, further chain): as the sequence (P00259 whole entry) above

## c1ccc(COCc2ccccc2)cc1 [Benzylether]
[1]; [11]
  inhibition at 200 µM: 5%

## CCc1ccccc1 [Ethylbenzene]
[2]; [12]
  percent displacement of bound DTT at 200 µM: 40%

## c1ccc(Oc2ccccc2)cc1 [Diphenylether]
[2]; [12]
  percent displacement of bound DTT at 200 µM: 50%
[3]
  ΔSpin high/low (percentage of P-450 converted from low- to high-spin): 10%
[1]; [11]
  inhibition at 200 µM: 5%

## CCCC(=O)Oc1cccc2ccccc12 [1-Naphthylbutyrate]
[2]; [12]
  percent displacement of bound DTT at 200 µM: 5%
[1]; [11]
  inhibition at 200 µM: 5%

## CCc1ccc2ccccc2c1 [2-Ethylnaphthalene]
[2]; [12]
  percent displacement of bound DTT at 200 µM: 20%

## O=C(c1ccccc1)c1ccc2ccccc2c1 [Naphthylphenylketone]
[2]; [12]
  percent displacement of bound DTT at 200 µM: 5%
[1]; [11]
  inhibition at 200 µM: 5%

## CCCCCCCCCCCC [n-Dodecane]
[2]; [12]
  percent displacement of bound DTT at 200 µM: 5%

## CCc1cccc2ccccc12 [1-Ethylnaphthalene]
[2]; [12]
  percent displacement of bound DTT at 200 µM: 20%

## CCCCCCCC/C=C\CCCCCCCC(=O)O [Oleic acid]
[2]; [12]
  percent displacement of bound DTT at 200 µM: ~20%
[1]; [11]
  inhibition at 200 µM: ~10%

## CCCCCCCCCCC [n-Undecane]
[2]; [12]
  percent displacement of bound DTT at 200 µM: 20%

## c1ccc(CCc2ccccc2)cc1 [Bibenzyl]
[2]; [12]
  percent displacement of bound DTT at 200 µM: 55%

## O=C1c2ccccc2Cc2ccccc21 [Anthrone]
[2]; [12]
  percent displacement of bound DTT at 200 µM: 5%
[1]; [11]
  inhibition at 200 µM: 5%

## CC1CCCCC1 [Methylcyclohexane]
[2]; Mutant Y96A, 200 μM DTT, 200 μM test compound, phosphate buffer, 200 µM
  Vs DTT (percentage displacement of DTT bound to P-450): 70%
[2]; [12]
  percent displacement of bound DTT at 200 µM: 60%
[3]
  ΔSpin high/low (percentage of P-450 converted from low- to high-spin): 50%
[1]; [11]
  inhibition at 200 µM: 50%

## c1ccc(CNc2ccccc2)cc1 [N-Phenylbenzylamine]
[1]; [11]
  inhibition at 200 µM: 5%

## c1cc2ccc3cccc4ccc(c1)c2c34 [Pyrene]
[4]
  Total products: 1.5 area/10^6
[5]
  Total products: 0.02 area/10^6
[6]
  Total products: 1.5 area/10^6
[7]
  Total products: 1.2 area/10^6
[8]
  Total products: 1.6 area/10^6
[9]
  Total products: 0 area/10^6

## O=Cc1ccc2c(c1)Cc1ccccc1-2 [2-Fluorencarboxzaldehyde]
[2]; [12]
  percent displacement of bound DTT at 200 µM: 50%

## O=C1c2ccccc2-c2ccccc21 [9-Fluorenone]
[2]; [12]
  percent displacement of bound DTT at 200 µM: 5%
[1]; [11]
  inhibition at 200 µM: 20%

## C(=C/c1ccccc1)/c1ccccc1 [cis-Stilbene]
[2]; [12]
  percent displacement of bound DTT at 200 µM: 50%
[1]; [11]
  inhibition at 200 µM: 20%

## C=Cc1ccccc1 [Styrene]
[2]; [12]
  percent displacement of bound DTT at 200 µM: 30%

## CCC(CC)CC [3-ethyl pentane]
[10]
  Turnover rate measured as NADH consumption rate: 16.2 nmole NADH/nmole P450cam/s

## CC1(C)[C@@H]2CC[C@@]1(C)C(=O)C2=O [(1R)-(-)-Camphorquinone]
[2]; [12]
  percent displacement of bound DTT at 200 µM: 80%
[3]
  ΔSpin high/low (percentage of P-450 converted from low- to high-spin): 80%
[1]; [11]
  inhibition at 200 µM: 80%

## C=CC(=C)C [Isoprene]
[2]; [12]
  percent displacement of bound DTT at 200 µM: 10%

## C1CC[C@H]2CCCC[C@@H]2C1 [trans-Decahydro naphthalene]
[2]; [12]
  percent displacement of bound DTT at 200 µM: 70%
[3]
  ΔSpin high/low (percentage of P-450 converted from low- to high-spin): 20%
[1]; [11]
  inhibition at 200 µM: 10%

## CCCCCC(C)C [2-methyl heptane]
[10]
  Turnover rate measured as NADH consumption rate: 2.1 nmole NADH/nmole P450cam/s

## c1ccc(-c2ccccc2)cc1 [Biphenyl]
[2]
  inhibition at 200 µM: 90%
[1]
  inhibition at 200 µM: 20%

## CCCCCCCCCCCCOS(=O)(=O)O [SDS]
[2]; [12]
  percent displacement of bound DTT at 200 µM: 60%
[1]; [11]
  inhibition at 200 µM: 20%

## CC(C)=CCC/C(C)=C/CC/C(C)=C/CC/C=C(\C)CC/C=C(\C)CCC=C(C)C [Squalene]
[2]; [12]
  percent displacement of bound DTT at 200 µM: 20%

## c1ccc2c(c1)Cc1ccccc1-2 [Fluorene]
[2]; [12]
  percent displacement of bound DTT at 200 µM: 50%

## C1=CC2C3C=CC(C3)C2C1 (centres unmarked) [Dicyclopentadiene]
[2]; [12]
  percent displacement of bound DTT at 200 µM: 90%
[3]
  ΔSpin high/low (percentage of P-450 converted from low- to high-spin): 50%
[1]; [11]
  inhibition at 200 µM: 80%

## CCC(C)C [2-methyl butane]
[10]
  Turnover rate measured as NADH consumption rate: 4.6 nmole NADH/nmole P450cam/s

## CCCCC(C)C [2-methyl hexane]
[6]
  Relative activity (WT = 1): 2.3
[6]; 2-methyl hexane
  Products (%): 2-methyl-2-hexanol: 72%
  Products (%): 2-methyl-3-hexanol: 7%
  Products (%): 5-methyl-2-hexanol: 5%
  Products (%): 5-methyl-2-hexanone: 16%
[7]
  Relative activity (WT = 1): 2.6
[7]; 2-methyl hexane
  Products (%): 2-methyl-2-hexanol: 74%
  Products (%): 2-methyl-3-hexanol: 4%
  Products (%): 5-methyl-2-hexanol: 8%
  Products (%): 5-methyl-2-hexanone: 14%
[10]
  Turnover rate measured as NADH consumption rate: 10.6 nmole NADH/nmole P450cam/s

## C1=Cc2ccccc2CC1 [1,2-Dihydronaphthalene]
[2]; [12]
  percent displacement of bound DTT at 200 µM: 90%
[3]
  ΔSpin high/low (percentage of P-450 converted from low- to high-spin): 5%
[1]; [11]
  inhibition at 200 µM: 20%

## c1ccc2c(c1)CCCC2 [1,2,3,4-Tetrahydro naphthalene]
[2]; [12]
  percent displacement of bound DTT at 200 µM: 40%
[3]
  ΔSpin high/low (percentage of P-450 converted from low- to high-spin): 5%
[1]; [11]
  inhibition at 200 µM: 10%

## CC(C)C(C)C [2,3-dimethyl butane]
[10]
  Turnover rate measured as NADH consumption rate: 16.8 nmole NADH/nmole P450cam/s

## O=C(c1ccccc1)C1CCCCC1 [Cyclohexylphenylketone]
[1]; [11]
  inhibition at 200 µM: 30%

## CC(=O)Oc1ccc2ccccc2c1 [2-Naphthylacetate]
[2]; [12]
  percent displacement of bound DTT at 200 µM: 5%
[1]; [11]
  inhibition at 200 µM: 5%

## CC(=O)Oc1cccc2ccccc12 [1-Naphthylacetate]
[2]; [12]
  percent displacement of bound DTT at 200 µM: 5%
[1]; [11]
  inhibition at 200 µM: 5%

## C=C(C)[C@H]1CC=C(C)C(=O)C1 [(S)-(+)-Carvone]
[2]; [12]
  percent displacement of bound DTT at 200 µM: 80%
[3]
  ΔSpin high/low (percentage of P-450 converted from low- to high-spin): 10%
[1]; [11]
  inhibition at 200 µM: 60%

## CC1(C)C(=O)[C@]2(C)CC[C@H]1C2 [(1R)-(-)-Fenchone]
[2]; [12]
  percent displacement of bound DTT at 200 µM: 80%
[3]
  ΔSpin high/low (percentage of P-450 converted from low- to high-spin): 40%
[1]; [11]
  inhibition at 200 µM: 70%

## Cc1ccccc1 [Toluene]
[2]; [12]
  percent displacement of bound DTT at 200 µM: 30%

## C1=CCCCC1 [Cyclohexene]
[2]; [12]
  percent displacement of bound DTT at 200 µM: 40%
[1]; [11]
  inhibition at 200 µM: 5%

## CCC(C)(C)C [2,2-dimethyl butane]
[10]
  Turnover rate measured as NADH consumption rate: 14.0 nmole NADH/nmole P450cam/s

## c1ccc2c(c1)-c1cccc3cccc-2c13 [Fluoranthene]
[2]
  inhibition at 200 µM: 10%
[1]
  inhibition at 200 µM: 5%
[5]
  Total products: 0.2 area/10^6
[5]; fluoranthene
  Products (%): A: 0%
  Products (%): B: 100%
[7]
  Total products: 2.7 area/10^6
[7]; fluoranthene
  Products (%): A: 84%
  Products (%): B: 16%
[9]
  Total products: 0 area/10^6
[9]; fluoranthene
  Products (%): A: 0%
  Products (%): B: 0%

## c1ccc(C2CCCCC2)cc1 [Cyclohexylbenzene]
[3]
  ΔSpin high/low (percentage of P-450 converted from low- to high-spin): 20%
[1]; [11]
  inhibition at 200 µM: 20%
[4]
  Total products: 10.4 area/10^5
[4]; cyclohexylbenzene
  Products (%): Cis-4-ol: 16%
  Products (%): Trans-4-ol: 23%
[6]
  Total products: 1.1 area/10^5
[6]; cyclohexylbenzene
  Products (%): Cis-4-ol: 13%
  Products (%): Trans-4-ol: 6%
[7]
  Total products: 7.4 area/10^5
[7]; cyclohexylbenzene
  Products (%): 3-ol: 20%
  Products (%): Cis-4-ol: 45%
  Products (%): Trans-4-ol: 15%
[8]
  Total products: 12.5 area/10^5
[8]; cyclohexylbenzene
  Products (%): Cis-4-ol: 23%
  Products (%): Trans-4-ol: 10%
[9]
  Total products: 0.8 area/10^5
[9]; cyclohexylbenzene
  Products (%): Cis-4-ol: 12%
  Products (%): Trans-4-ol: 25%

## O=C(Oc1ccccc1)c1ccccc1 [Phenylbenzoate]
[1]; [11]
  inhibition at 200 µM: 5%

## CCC(=O)Oc1cccc2ccccc12 [1-Naphthylpropionate]
[2]; [12]
  percent displacement of bound DTT at 200 µM: 20%
[1]; [11]
  inhibition at 200 µM: 20%
